Experimental data as given in patent EP0454060B1, “3-(Mercaptoalkyl)-quinazoline-2,4(1H,3H)-diones, processes for their preparation, and pharmaceutical compositions” (priority 1990, dated 1991).

Assays:
[1] = tested on: SE-spezifischen IgM- und IgG-PBZ; test: Haemolysis plaque test (immunostimulation); type: in vivo, Maus (Inzuchtstamm CBA); conditions: 2,0 mg/kg daily over 5 days, peroral, p < 0,001
Text: Der Nachweis immunstimulierender Effekte wurde weiterhin an der Maus (Inzuchtstamm CBA) und u. a. mit Hilfe folgender Nachweismethoden geführt: • Plaque-Test zum Nachweis von SE-spezifischen IgM- und IgG-PBZ, • Rosettentest.
Aus den Werten wird deutlich, daß die Verbindungen der allgemeinen Formel I einen gut nachweisbaren Effekt auf die Effektor-T-Lymphozyten-abhängige verzögerte Uberempfindlichkeit haben. Kontaktdermatitis-Werte ab 120 (≙ 20 % Steigerung gegenüber der Kontrolle) bzw. unter 80 werden als Nachweis eines stimulatorischen bzw. suppressorischen Effektes angesehen. Antikörpertiter-Differenzen von >+1 bzw. <-1 verdeutlichen den stimulatorischen bzw. suppressorischen Effekt der Substanzen auf die humorale Immunantwort. 2. Untersuchungen zur immunstimulierenden Wirkung • 2.1 Plaque-Test zum Nachweis von SE-spezifischen IgM- und IgG-PBZ Zur Prüfung immunstimulierender Effekte wurde u. a. auch der Einfluß von Verbindungen der allgemeinen Formel I auf die humorale Immunantwort an Mäusen des Inzuchtstammes CBA und mittels Hämolyse-Plaque-Test (HPT) untersucht. Diese Technik erlaubt die quantitative und getrennte Erfassung IgM- und IgG-Antikörper produzierender Zellen (= Plaque bildende Zellen; PBZ). […]

[2] = tested on: SE-spezifischen IgM- und IgG-PBZ; test: Plaque test after damage of the immune system by cyclophosphamide (immunorestoration); type: in vivo, CBA-Inzuchtmäuse; conditions: ZY 150 mg/kg day -1 + 2 mg/kg oral days -2 to +2
Text: Der Nachweis von immunrestaurativen Wirkungen erfolgte nach Schädigung des Immunsystems ebenfalls mittels • Plaque-Test zum Nachweis von SE-spezifischen IgM- und IgG-PBZ sowie durch • Rosettentest.
Aus den Werten wird deutlich, daß die Verbindungen der allgemeinen Formel I einen gut nachweisbaren Effekt auf die Effektor-T-Lymphozyten-abhängige verzögerte Uberempfindlichkeit haben. Kontaktdermatitis-Werte ab 120 (≙ 20 % Steigerung gegenüber der Kontrolle) bzw. unter 80 werden als Nachweis eines stimulatorischen bzw. suppressorischen Effektes angesehen. Antikörpertiter-Differenzen von >+1 bzw. <-1 verdeutlichen den stimulatorischen bzw. suppressorischen Effekt der Substanzen auf die humorale Immunantwort. 2. Untersuchungen zur immunstimulierenden Wirkung • 2.1 Plaque-Test zum Nachweis von SE-spezifischen IgM- und IgG-PBZ Zur Prüfung immunstimulierender Effekte wurde u. a. auch der Einfluß von Verbindungen der allgemeinen Formel I auf die humorale Immunantwort an Mäusen des Inzuchtstammes CBA und mittels Hämolyse-Plaque-Test (HPT) untersucht. Diese Technik erlaubt die quantitative und getrennte Erfassung IgM- und IgG-Antikörper produzierender Zellen (= Plaque bildende Zellen; PBZ). Die Immunisierung mit Schaferythrozyten (SE) erfolgte am Tag 0, die Substanzapplikation (Tagesdosis 1.10^-5 mol/kg Körpermasse; peroral) an den Tagen -1 bis +3 (zur Erfassung der IgM-PBZ) bzw. an den Tagen +1 bis +5 (zur Erfassung der IgG-PBZ). • 2.2 Ergebnisse: Durch tägliche und über 5 Tage gehende Gabe von 2,0 mg der Verbindung gemäß Beispiel 1 pro kg Körpermasse konnte die Zahl der IgM-PBZ auf einen Durchschnittswert von 352 % im Vergleich zur Kontrolle (100 %) gesteigert werden. Die gleiche Form der Behandlung führte zu einer Erhöhung der IgG-PBZ auf 497 % (Kontrolle: 100 %). In beiden Fällen erwies sich die Differenz zur Kontrolle im t-Test mit p < 0,001 als signifikant. Es wird deutlich, daß eine über 5 Tage gehende tägliche Behandlung mit der Verbindung gemäß Beispiel 1 bei der CBA-Maus eine hochsignifikante Steigerung SE-spezifischer IgM- und IgG-PBZ hervorruft. • 2.3 Rosettentest (SE-spezifische Rosetten) Nach der BURNET'schen Theorie tragen die Lymphozyten auf ihrer Oberfläche Immunglobulin-Rezeptoren, die gegen ein bestimmtes Antigen gerichtet und durch eine Reaktion mit dem spezifischen Antigen nachweisbar sind. Die Bestimmung der Anzahl an rosettenbildenden Zellen (RBZ) kann als Maß für die Stärke einer anlaufenden Immunreaktion dienen und folgend auch Effekte im Sinne einer Suppression oder Stimulierung zellproliferativer Prozesse wiedergeben. Drei Tage nach der intravenösen Immunisierung mit 2·10^5 Schaferythrozyten (SE) in 0,2 ml physiologischer Kochsalzlösung wurden die Versuchstiere durch Überstrecken getötet, die Milz entnommen und unter Zugabe von Parker-Medium (pH 7,4) durch Müller-Gaze gerieben. Die Arbeiten zur Gewinnung der Zellsuspension wurden im Eiswasserbad (ca 0 bis 4 °C) durchgeführt. In einer Zählkammer nach Neubauer erfolgte die Bestimmung der Zelldichte, und anschließend wurde die für alle Versuchsansätze konstante Zellzahl von 1·10^7 kernhaltigen Zellen (KHZ)/ml Medium eingestellt. 0,9 ml der Milzzellsuspension (1·10^7 KHZ/ml) wurden dann mit 0,1 ml einer 5 %igen gewaschenen Schaferythrozytensuspension versetzt und 24 Stunden bei 4 °C inkubiert. […] 3. Untersuchungen zu immunrestaurativen Effekten 3.1 Der Nachweis der immunrestaurativen Wirksamkeit von Verbindungen der allgemeinen Formel I wurde u. a. dadurch geführt,daß das Immunsystem der Versuchstiere (CBA-Inzuchtmäuse) durch Chemotherapie (Zyklophosphamid, Carageenan, Iloprost) bzw. Bestrahlung geschädigt wurde. Die Prüfung erfolgte u. a. mittels folgender oben erläuterter Techniken: • Plaque-Test zum Nachweis von SE-spezifischen IgM- und IgG-PBZ, • Rosettentest. […]

[3] = tested on: primären Hühnerembryonalzellen (2 Tage alt); test: Cell tolerance, microscopic reading; type: cell-based, Hühner; set-up: key: 0̸: Am 5. Tag der mikroskopischen Ablesung keine morphologischen Veränderungen der Zellen.; ++++: Komplette Veränderungen der Zellschicht in Form von Abrundung, Granulierung und Ablösen der Zellen von der Glaswand.; +++: Analoge Veränderungen bei 3/4 des Zellrasens.; ++: Analoge Veränderungen bei 1/2 des Zellrasens.; +: Analoge Veränderungen bei 1/4 des Zellrasens; conditions: HEZ, reading day 5
Text: 0̸ = Am 5. Tag der mikroskopischen Ablesung keine morphologischen Veränderungen der Zellen. ++++ = Komplette Veränderungen der Zellschicht in Form von Abrundung, Granulierung und Ablösen der Zellen von der Glaswand. +++ = Analoge Veränderungen bei 3/4 des Zellrasens. ++ = Analoge Veränderungen bei 1/2 des Zellrasens. + = Analoge Veränderungen bei 1/4 des Zellrasens.

Vaccinia Lister = test: Plaque reduction test on primary HEZ; conditions: mean of two experiments

O=c1[nH]c2ccccc2c(=O)n1CCS [Beispiel 1, 3-(2-Mercaptoethyl)-chinazolin-2,4(1H,3H)-dion]
IgG-PBZ (Kontrolle: 100 %) ([1]; days +1 to +5): 497%
Zahl der IgM-PBZ im Vergleich zur Kontrolle (100 %) ([1]; days -1 to +3, average value): 352%
IgM-PBZ/10^6 ([2]; test day + 3): 31,7 ± 26,6 /10^6
IgM-PBZ/10^6 ([2]; test day + 4): 59,8 ± 26,6 /10^6
IgM-PBZ/10^6 ([2]; test day + 5, p <0,05): 125,2 ± 32,7 /10^6
IgM-PBZ/10^6 ([2]; test day + 6): 47,8 ± 31,2 /10^6
IgG-PBZ/10^6 Milzzellen ([2]; test day + 6, p <0,05): 88,3 ± 24,8 /10^6 Milzzellen
IgG-PBZ/10^6 Milzzellen ([2]; test day + 7, p <0,01): 128,3 ± 28,6 /10^6 Milzzellen
IgG-PBZ/10^6 Milzzellen ([2]; test day + 8): 58,3 ± 43,6 /10^6 Milzzellen
Zellverträglichkeit ([3]; 125 µmol/l in maintenance medium): 0̸
Zellverträglichkeit ([3]; 250 µmol/l in maintenance medium): 0̸
Zellverträglichkeit ([3]; 500 µmol/l in maintenance medium): +
Zellverträglichkeit ([3]; 1000 µmol/l in maintenance medium): +++
Zellverträglichkeit ([3]; 62,5 µmol/l in maintenance medium): 0̸
Plaquereduktion in % zur Viruskontrolle auf primären HEZ (Vaccinia Lister; 125 µmol/l): 96%
Plaquereduktion in % zur Viruskontrolle auf primären HEZ (Vaccinia Lister; 250 µmol/l): 100%
Plaquereduktion in % zur Viruskontrolle auf primären HEZ (Vaccinia Lister; 31,25 µmol/l, 31.25 µM): 87%
Plaquereduktion in % zur Viruskontrolle auf primären HEZ (Vaccinia Lister; 62,5 µmol/l, 62.5 µM): 92%
